The values below come from publication PMC8868285, “Pharmacological Inhibition of Epac1 Averts Ferroptosis Cell Death by Preserving Mitochondrial Integrity” (Antioxidants, 2022).

Experiment [1] concerns isolated mitochondria from HT-22 cells. In words: High-resolution respirometry (Oroboros) of isolated mitochondria. Set-up: species or system mouse. The method, then:
Mitochondria were isolated from harvested HT-22 cells (4–8 × 10^7 cultivated in T75 flasks) using a semi-automated pump-controlled cell rupture system (PCC) (0.71 mL/min) with syringes (SGE, Trajan© Scientific, Ringwood, Australia) attached to a cell homogenizer (Isobiotech, EMBL, Heidelberg, Germany) (bead size of 10 μm suitable for HT-22 cells) and superimposed on a pump (ProSense B.V, Oosterhout, The Netherlands, #NE1000). Collected samples were centrifuged at 800 rpm for 10 min at 4 °C. The supernatant was further centrifuged at 9000× g for 10 min at 4 °C. The resulting pellet was the crude mitochondria. Finally, the mitochondria were suspended in an isolation buffer (HEPES 20 mM, sucrose 250 mM EDTA 3 mM, pH 7.5) for subsequent experiments. The whole procedure was executed on ice.
The protein concentration of isolated mitochondria was determined using the Pierce™ BCA Protein Assay Kit (Pierce™ BCA Protein Assay Kit, Thermo Scientific, Rockford, IL, USA, #23225). Respiration of the isolated mitochondria from HT-22 cells was analyzed using the high-resolution respirometry oxygraph O2K (Oroboros Systems, Innsbruck, Austria). The isolated mitochondria (200 μg) prepared as previously described, were treated with either CE3F4, ESI-05, ethanol, or DMSO as appropriate for 25 min, followed by mitochondrial respiration measurements. Mitochondrial state 1 was determined by continuous stirring at 750 rpm in 1 mL of MiR05 buffer (MgCl2 3 mM, lactobionic acid 60 mM, EGTA 0.5 mM taurine 20 mM, KH2PO4 10 mM, D-Sucrose 110 mM, HEPES 20 mM, BSA, essential fatty acid-free1 g/L, pH adjusted to 7.4). DatLab software (Oroboros Systems, Innsbruck, Austria) was used to record real-time oxygen flux per tissue mass (pmol O2. s^−1 × mg^−1) at 37 °C and to perform oxygen polarography. States were described as, State 2: a non-phosphorylating respiration state which was assessed by addition of complex-I linked substrates, 5 mM pyruvate (Sigma–Aldrich Chemie GmbH, Steinheim, Germany #P-2256), and 2 mM malate (Sigma–Aldrich Chemie GmbH, Steinheim, Germany, #374318); State 3: the oxidative-phosphorylation capacity (OXPHOS) state, of complex-I linked activity or basal respiration was achieved by adding a saturating concentration of 0.8 mM ADP (Sigma–Aldrich Chemie GmbH, Steinheim, Germany, #A5285), this allowed for calculation of ADP-coupled repiration; State 4: Achieved by subsequent addition of oligomycin 0.1 μM/mL (Sigma–Aldrich Chemie GmbH, Steinheim, Germany, #O4876) following state 3, oligomycin blocks the ATP-synthase, thereby inhibiting proton passage; State 3U: Was assessed by incremental steps of 1 μM addition of FCCP—theprotonophore carbonyl cyanide 4-(trifluoromethoxy) phenylhydrazone (Sigma–Aldrich Chemie GmbH, Steinheim, Germany, #C2920), this allowed the calculation of the reserve capacity of the Electron Transport Chain (ETC); Finally, sodium dithionite (DTT, Sigma–Aldrich Chemie GmbH, Steinheim, Germany, #15,795-3) was added to reduce all residual oxygen that was present in the chamber and to calibrate the oxygen content in the chamber. The O2 slope (pmol × (mL/s)) of isolated mitochondria was the oxygen concentration and also the initial derivate of the oxygen concentration—a derivative of oxygen consumption. Measurements were recorded in intervals of 2 s by using a background correction after calibration of the polarographic oxygen sensors.

Experiment [2] relates to HT-22 cells. In words: Cell death assessment, FACS analysis of PI staining. On the technique in general: Flow cytometry measures light scatter and fluorescence of single cells or particles in a stream.
Description: (§1) Flow cytometry analysis using the CytoFLEXS benchtop flow cytometer (Beckman Coulter Life Sciences, Indianapolis, IN, USA) was used to evaluate intracellular parameters that are associated with not only oxidative stress but also mitochondrial dysfunction, and cell death. HT-22 cells (40,000 cells/well) seeded in 24-well plates were treated with various conditions. Treatment groups included: control condition (DMSO 1%), erastin 1 µM or 1.5 µM, CE3F4 100 µM, and co-treatment of erastin and CE3F4. Three separate wells were analyzed for each condition and the same number of counts (10,000/well) were measured by flow cytometry. At least three independent experiments were performed, and the Kaluza Analysis 1.5 software was employed for quantification of data.
The amount of cell death after stimulation with erastin for 16–17 h was assessed by incubating trypsonized HT-22 cell suspension with propidium iodide (PI) (Invitrogen, Oregon City, OR, USA, #V13242, Lot #2008168) in a binding buffer. Incubation with the dye was for 30 min at RT. Fluorescence was detected at 494/518 and 535/617 for FITC and PI respectively.
In another experiment the test system is Epac1. The settings on record: CE3F4, Epac1 inhibitor; cited from earlier work.
The subject of experiment [3] is HT-22 cells. As to the kind of experiment: Mitochondrial morphology (MitoTracker Deep Red, categories I-III). It counts as cell-based, mouse. As for the experimental part:
Mitochondrial morphology was assessed using imaging of HT-22 cells stained with MitoTracker™Deep Red FM (Invitrogen, Oregon City, OR, USA, #M22426). Cells were treated with either erastin 1 µM, CE3F4 100 µM, or co-treated with erastin 1 µM and CE3F4 100 μM for 18 h. After the treatment, cells were incubated with 200 nM MitoTracker™Deep Red FM for 30 min at 37 °C. Untreated cells were included as controls. 4% paraformaldehyde (PFA) was used for fixation and detection of the MitoTracker fluorescence was achieved by 620 nm (excitation) and 700 ± 75 nm (detection). 500 cells per condition were counted and grouped into three different categories, based on their mitochondrial morphology/shape. The analysis and categorization of mitochondria was done by an investigator without previous knowledge of the various experimental conditions. Category I included healthy cells with mitochondria that form an elongated tubular network that is distributed equally throughout the cytosol. It could also include short mitochondria, but distributed in the cytosol. On the other hand, Category II included cells which contained large, and fragmented/granulated mitochondria around the nucleus. […] Category III represented damaged and dying cells with observed small rounded mitochondria of varying sizes and in proximity to the nucleus.. At least three independent experiments were performed.

In experiment [4] the test system is HT-22 cells. As to the kind of experiment: Mitochondrial superoxide, MitoSOX FACS.
Description: as §1
MitoSOX dye (Invitrogen, Oregon City, OR, USA, #M36008, Lot#1924466) was used to evaluate mitochondrial ROS. The MitoSOX dye is able to permeate live cells and also selectively target mitochondria where it is swiftly oxidized by superoxides but not by other reactive oxygen species. […] Incubation of HT-22 cells with MitoSOX™ 1.25 μM dye was done for 30 min at 37 °C. Fluorescence excitation and detection were done at 488 nm and 690/50 nm respectively.
Experiment [5] has as its system HT-22 cells. As to the kind of experiment: Soluble ROS, CM-DCF FACS. It counts as cell-based, mouse. As for the experimental part:
Soluble ROS was evaluated by CM-DCF fluorescent dye (Invitrogen, Oregon City, OR, USA). CM-DCF passively diffuses into cells, and reacts with glutathione and other thiols following cleavage by intracellular esterases, which in turn exposes the thiol-reactive chloromethyl group. The oxidation that follows results in a fluorescent adduct that is ensnared within the cell. The higher the fluorescence, the more cellular ROS is produced in the cells.

Experiment [6] concerns HT-22 cells. As to the kind of experiment: Mitochondrial membrane potential, TMRE FACS. Particulars: for effect on erastin-induced ΔΨm loss: no significant difference to control.
Description: as §1
Staining with TMRE™ dye (tetramethylrhodamine-ethyl ester; Invitrogen, Oregon City, OR, USA, #T669) was used to determine loss of mitochondrial membrane potential (MMP) (ΔΨm). […] Collected cells were incubated for 20 min with TMRE 0.2 μM at 37 °C. Fluorescence excitation and detection were done at 488 nm 690/50 nm respectively.

Turning to `CC1CCc2c(cc(Br)c(F)c2Br)N1C=O` (stereo not drawn) [CE3F4], the ADP-coupled respiration entry in experiment [1] (30 μM CE3F4) and in experiment [1] (100 µM CE3F4) was “no significant differences” each time. The “mitochondrial respiration states (2, 3, 4, 3U)” value in experiment [1] (CE3F4 30 μM and 100 μM, 25 min) was “no significant effect on any mitochondrial respiration states”. The “effect on erastin-induced cell death (PI staining)” value with HT-22 cells [2] (co-treatment 30 μM CE3F4 + erastin 1 μM) and in the experiment on HT-22 cells [2] (co-treatment 100 μM CE3F4 + erastin 1 μM) was “markedly attenuated” in each case. Besides, the 50% inhibitory concentration (IC50) in the experiment with Epac1 is 23 ± 3 µM. The “mitochondrial morphology, category III” value in the experiment on HT-22 cells [3] (30 µM CE3F4 + erastin 1 μM vs erastin alone) is reported as “significant decrease of category III mitochondrial fragmentation”. For the same compound, the values for the mitochondrial morphology result in the experiment with HT-22 cells [3] (100 μM CE3F4 + erastin 1 μM) and with HT-22 cells [3] (CE3F4 alone (100 µM)) were “completely abolished the effects of erastin on mitochondrial morphology” and “did not alter mitochondrial morphology”, respectively. In addition, the mitochondrial superoxide levels entry in the experiment on HT-22 cells [4] (30 μM CE3F4 alone) was “shift towards the intermediate mitochondrial superoxide”. Also, the “mitochondrial superoxide levels (intermediate)” value with HT-22 cells [4] (100 μM CE3F4 alone, compared with 30 μM) is “further increased”. For the same compound, the “effect on erastin-mediated mitochondrial superoxide levels” value in the experiment on HT-22 cells [4] (CE3F4 30 μM + erastin 1 μM) was “did not affect erastin-mediated effects on mitochondrial superoxide levels”; in the experiment on HT-22 cells [4] (CE3F4 100 μM + erastin), “significantly attenuated the increase in high mitochondrial superoxide levels”. Further, the “intracellular ROS production (CM-DCF)” value in the experiment on HT-22 cells [5] (100 μM CE3F4 + erastin vs erastin alone, not restored to control levels) was “significant decrease in intracellular ROS production”. Moreover, the “total intracellular ROS production (CM-DCF)” value with HT-22 cells [5] (100 μM CE3F4 alone) is “did not influence the amount of total intracellular ROS production”. Also, the “effect on erastin-induced ΔΨm loss” value in the experiment on HT-22 cells [6] (100 µM CE3F4 + erastin 1 μM) and with HT-22 cells [6] (100 µM CE3F4 + erastin 1.5 μM) was “significantly attenuated ΔΨm loss” each time. The “mitochondrial membrane potential (ΔΨm)” value in the experiment with HT-22 cells [6] (CE3F4 alone) is given as “slight hyperpolarization”.

As a reminder, the IC50 is the concentration needed to halve the response being measured.
